Test results taken from US20140045908A1, “HSP90 INHIBITORY COMPOUNDS IN TREATING JAK/STAT SIGNALING-MEDIATED CANCERS” (SYNTA PHARMACEUTICALS CORP., priority 2011, published 2014).

Tests used:
[1] = system: JAK/STAT target and cell cycle gene expression in HEL92.1.7 cells; assay: RNA expression profiling (RT-PCR, Affymetrix) in HEL92.1.7 cells; format: cell-based, human
Procedure: HEL92.1.7 cells were treated with DMSO, P6 (100 or 1000 nM) or ganetespib (25 or 250 nM) for 4 h or 24 h, and total RNA extracted using Trizol (Invitrogen). RNA was purified with the RNeasy kit (Qiagen, Hilden, Germany) and converted to cDNA via an iScript kit (BioRad, Hercules, Calif., USA). Oligonucleotide primers were purchased from SABiosciences (Frederick, Md., USA). PCR was done with iQ SYBR Green Supermix (Bio-Rad), and levels of the tested genes were normalized to HPRT expression using the comparative Ct method.
Biotinylated aRNA was generated by in vitro transcription using Affymetrix GeneChip Expression IVT labeling kit (Affymetrix, Santa Clara, Calif., USA). Fifteen micrograms of labeled aRNA was fragmented and hybridized to Affymetrix GeneChip Human Genome U133 Plus 2 arrays and scanned using a GeneChip Scanner (Affymetrix). Array data were analyzed with the Affymetrix Expression Console Software utilizing the MASS algorithm. In order to generate a threshold for identifying probe sets that have large differences between 1000 nM P6 (4 h) and 250 nM ganetespib (24 h) arrays and their controls in the absence of treatment replicates, data from four control arrays (DMSO only; two at 4 h, and two at 24 h) were used to create an expression level dependent fold-difference envelope that reflects the increasing measurement variability as expression level decreases. This envelope, used in lieu of a fixed fold-difference criteria, was formed by identifying the xth percentile expression-level difference (where x was large, typically 99.9%) at each mean expression level bin. To achieve this, data were used from the six possible comparisons from the four DMSO-only arrays. The resulting, smoothed threshold fold-difference envelope was then applied to the two compound-treated/control array pairs to identify those probe-sets that have large expression level differences between treatment and control. For hierarchical analysis, genes with greater than two fold changes in expression with 250 nM ganetespib were clustered using established algorithms in Cluster (49) and a subset visualized by TreeView.

[2] = system: JAK2/STAT signaling in NCI-H1975 cells; assay: Western blot of JAK/STAT and Hsp90 client proteins in NCI-H1975 cells; format: cell-based, human; conditions: 24 h
Procedure: NCI-H1975 cells were dosed with the indicated concentrations of ganetespib for 24 h and their cell lysates analyzed to determine JAK/STAT and Hsp90 client protein levels using the antibodies indicated.
(§1) Cells were disrupted in lysis buffer (CST) and solubilized in 2% SDS. Xenograft tumors (average volume of 100-200 mm3) were excised, cut in half, and flash frozen in liquid nitrogen. Each tumor fragment was lysed in 0.5 mL of lysis buffer using a FastPrep-24 homogenizer and Lysing Matrix A (MP Biomedicals, Solon, Ohio, USA) and lysates clarified by centrifugation. Equal amounts of proteins were resolved by SDS-PAGE and immunoblotted with indicated antibodies. The antigen-antibody complex was visualized and quantitated using an Odyssey system (LI-COR, Lincoln, Nebr., USA).

[3] = system: JAK/STAT signaling in SET-2 cells; assay: Western blot of JAK/STAT signaling in SET-2 cells; format: cell-based, human; conditions: 24 h
Procedure: SET-2 cells were dosed with the indicated concentrations of ganetespib or 17-AAG for 24 h and analyzed to determine JAK/STAT protein and target levels using the antibodies indicated.
as §1

[4] = system: HEL92.1.7 cells; assay: Flow cytometry cell cycle analysis; format: cell-based, human
Procedure: HEL92.1.7 cells were plated at 0.5×10^6 cells/mL and treated as indicated. Cells were harvested and stained with propidium iodide using the BD Cycle TEST PLUS Reagent Kit (BD Biosciences, San Jose, Calif., USA) according to the manufacturer's instructions. Twenty thousand cells were analyzed for their DNA content using a FACS Caliber cytometer (BD Biosciences).

[5] = system: MV4-11 xenografts; assay: MV4-11 acute myeloid leukemia xenograft model; format: in vivo, SCID mice
Procedure: Mice bearing established MV4-11 xenografts (100-200 mm3, n=8 mice/group) were i.v. dosed (arrowheads) with ganetespib at either 25 or 150 mg/kg once weekly for 3 weeks, or at the HNSTD of 25 mg/kg five-times per week, as indicated. % T/C values are indicated to the right of each growth curve and the error bars are the s.e.m.
Eight-week-old female immunodeficient CB-17/Icr-Prkdcscid/Crl (SCID) mice (Charles River Laboratories, Wilmington, Mass.) were maintained in a pathogen-free environment, and all in vivo procedures were approved by the Synta Pharmaceuticals Corp. Institutional Animal Care and Use Committee. For the MV4-11 model, tumor cells were subcutaneously implanted in SCID mice as previously described (34). Tumor volumes (V) were calculated by caliper measurements of the width (W), length (L), and thickness (T) of each tumor using the formula: V=0.5236 (LWT).
Animals with 100-200 mm^3 tumors were then randomized into treatment groups of 8 and i.v. dosed via the tail vein at 10 mL/kg body weight with either vehicle or ganetespib formulated in 10/18 DRD (10% DMSO, 18% Cremophor RH 40, 3.6% dextrose, 68.4% water). Tumor growth inhibition was monitored by tumor volume measurements twice weekly. As a measurement of in vivo efficacy, the % T/C value was determined from the change in average tumor volumes of each treated group relative to the vehicle-treated or itself in the case of tumor regression. Statistical significance was determined using a Kruskal-Wallis one-way ANOVA followed by the Tukey Test multiple comparison procedure.
For both models, studies were conducted at the highest non-severely toxic doses (NHSTDs) of 150 mg/kg ganetespib one-time per week or 25 mg/kg ganetespib 5×/week for 3 weeks based on prior tolerability studies conducted in non-tumor bearing mice.

[6] = system: JAK2/STAT3 signaling in HCC827 cells; assay: Western blot of constitutive and IL-6 induced STAT3 activity in HCC827 cells; format: cell-based, human
Procedure: HCC827 lung cancer cells were treated with increasing concentrations of ganetespib or P6 for 24 h followed by a 15 min stimulation with or without 50 ng/ml human recombinant IL-6. The levels of JAK2, total and phospho-STAT3, and PIM2 were analyzed by western blot. GAPDH is included as a loading control.
as §1

[7] = system: JAK2 signaling in DU145 cells; assay: Western blot of JAK/STAT proteins in DU145 cells; format: cell-based, human
Procedure: DU145 cells were dosed with graded concentrations of ganetespib for 24 h and cell lysates subject to western blot to determine JAK/STAT and target protein levels using the antibodies indicated.
DU145 cells were treated with DMSO (control, C), 15 nM, 60 nM or 240 nM ganetespib for either 24 or 48 h and lysates probed by western blot with the indicated antibodies.
as §1

[8] = 24 h, absence of external ligand

## CC(C)c1cc(-c2nnc(O)n2-c2ccc3c(ccn3C)c2)c(O)cc1O [ganetespib, 3-(2,4-dihydroxy-5-isopropyl-phenyl)-4-(1-methyl-indol-5-yl)-5-hydroxy-[1,2,4] triazole]
[1]; 250 nM, 24 h
  expression of cell cycle-related genes: selectively altered the expression of a large set of genes involved in cell cycle-related activities
  expression of heat shock protein genes: up-regulation of numerous heat shock protein genes
[1]; 4 hour P6 (1000 nM), 24 hour ganetespib (250 nM)
  expression of JAK/STAT target genes (SOCS and PIM family members): downregulated
[2]
  AKT and GSK3β activity: Inactivation of AKT and GSK3β
  EGFR expression: dose dependent decrease in EGFR expression
  JAK2 and phosphorylated STAT3 levels: potent degradation of JAK2 and loss of phosphorylated STAT3 in a dose-dependent manner
  levels of phosphorylated BAD: concomitant reduction in the levels of phosphorylated BAD
[3]
  concentration able to destabilize JAK2 sufficiently to result in loss of activated (phosphorylated) STAT3 and STAT5 expression: 50 nM
[4]
  cell cycle distribution: temporal G1 and G2/M arrest in HEL92.1.7 cells, with concomitant loss of S phase
[5]; 25 mg/kg i.v. 5×/week for 3 weeks
  tumor regression: 84%
[5]; 25 or 150 mg/kg i.v. once weekly for 3 weeks
  tumor growth inhibition: significant and dose dependent tumor growth inhibition
[5]; both dosing regimens
  time tumor growth stayed suppressed once treatment was discontinued: up to a week or more
[6]; [8]
  JAK2 expression: dose-dependent decrease in JAK2 expression
  constitutive STAT3 activity: loss of STAT3 activity
[6]; 24 h then 15 min 50 ng/ml IL-6
  JAK/STAT signaling stimulated by exogenous IL-6: blocked JAK/STAT signaling stimulation
[7]; 15-240 nM, 24 or 48 h
  JAK1 kinase level: not targeted for degradation
[7]; 24 h
  JAK2, phospho-STAT3 and phospho-SHP2 levels: Loss of JAK2, phospho-STAT3 and phospho-SHP2
